Laboratory results published in BindingDB's records for doi:10.1021/jm050205o (Abbott Laboratories, 2005).

What follows are compounds tested against T1, Glucocorticoid receptor (Homo sapiens, UniProt P04150) (assay: GR Binding Assay and GRAF Assay). Settings: pH 8; 4 °C.
T1 sequence (P04150 whole entry): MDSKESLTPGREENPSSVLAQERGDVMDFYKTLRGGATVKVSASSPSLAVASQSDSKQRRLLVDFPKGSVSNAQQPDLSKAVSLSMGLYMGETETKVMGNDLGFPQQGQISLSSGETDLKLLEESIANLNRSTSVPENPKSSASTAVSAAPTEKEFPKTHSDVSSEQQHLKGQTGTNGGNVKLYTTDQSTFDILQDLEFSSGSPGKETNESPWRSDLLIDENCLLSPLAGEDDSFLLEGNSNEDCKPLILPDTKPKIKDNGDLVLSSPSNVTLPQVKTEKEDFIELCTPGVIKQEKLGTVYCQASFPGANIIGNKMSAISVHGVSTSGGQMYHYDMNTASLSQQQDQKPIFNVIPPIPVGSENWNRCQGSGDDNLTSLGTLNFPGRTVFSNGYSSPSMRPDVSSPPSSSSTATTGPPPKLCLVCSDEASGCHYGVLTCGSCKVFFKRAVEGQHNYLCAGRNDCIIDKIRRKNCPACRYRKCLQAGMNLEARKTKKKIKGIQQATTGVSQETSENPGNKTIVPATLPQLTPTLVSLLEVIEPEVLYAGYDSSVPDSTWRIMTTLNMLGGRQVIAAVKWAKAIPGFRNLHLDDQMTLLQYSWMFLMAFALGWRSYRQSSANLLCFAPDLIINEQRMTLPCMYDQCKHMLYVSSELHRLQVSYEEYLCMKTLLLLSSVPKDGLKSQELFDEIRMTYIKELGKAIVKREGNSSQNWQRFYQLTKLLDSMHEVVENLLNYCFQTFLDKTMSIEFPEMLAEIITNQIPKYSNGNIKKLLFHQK

| SMILES | IC50 [nM] |
| --- | --- |
| Cc1c(NS(C)(=O)=O)cccc1N(Cc1ccc(Oc2ccc(Cl)c(OCC(=O)O)c2)cc1)Cc1ccc(F)cc1F [2-{2-chloro-5-[4-({[(2,4-difluorophenyl)methyl](3-methanesulfonamido-2-methylphenyl)amino}methyl)phenoxy]phenoxy}acetic acid] | 500 |
| Cc1c(NS(C)(=O)=O)cccc1N(Cc1ccc(Oc2ccc(Br)c(OCC(=O)O)c2)cc1)Cc1ccc(F)cc1F [2-{2-bromo-5-[4-({[(2,4-difluorophenyl)methyl](3-methanesulfonamido-2-methylphenyl)amino}methyl)phenoxy]phenoxy}acetic acid] | 330 |
| Cc1c(NS(C)(=O)=O)cccc1N(Cc1ccc(Oc2ccc(F)c(OCC(=O)O)c2)cc1)Cc1ccc(F)cc1F [2-{5-[4-({[(2,4-difluorophenyl)methyl](3-methanesulfonamido-2-methylphenyl)amino}methyl)phenoxy]-2-fluorophenoxy}acetic acid] | 440 |
| CC#C[C@]1(O)CC[C@H]2[C@@H]3CCC4=CC(=O)CC[C@]4(Cc4ccc(C)cc4)C3=CC[C@@]21C [(2R,10S,11S,14S,15S)-14-hydroxy-15-methyl-2-[(4-methylphenyl)methyl]-14-(prop-1-yn-1-yl)tetracyclo[8.7.0.0^{2,7}.0^{11,15}]heptadeca-1(17),6-dien-5-one] | 43 |
